Results taken from patent publication US11298343B2, “Method for treating thalassemia” (ST. JUDE CHILDREN'S RESEARCH HOSPITAL, priority 2017, dated 2022).
Residues, ends and D or L forms follow the SMILES beside them. *: point of attachment. Cbz = O=C(OCc1ccccc1)*

Assays:
[1] = system: β-thalassemic erythroblasts; test: Cell survival of treated erythroblasts derived from β-thalassemia patient CD34+ cells; conditions: added day 13, 48 hours
From the text: Erythroid differentiation and maturation were monitored by flow cytometry with an LSR/Fortessa cell analyzer (BD Biosciences), using the following antibodies: anti-CD235a (BD Biosciences), anti-Band3, and anti-α4-integrin (Miltenyi).

[2] = system: free α-globin in β-thalassemic erythroblasts; test: Free α-globin by HPLC in erythroblasts derived from β-thalassemia patient CD34+ cells; format: cell-based, human; conditions: for reduction of free α-globin: rapamycin 10 μM or 20 μM added day 13, HPLC two days later
Procedure: Cells were lysed in Hemolysate reagent (Helena Laboratories, Beaumont, Tex.) and centrifuged. Analysis of globin chains in the supernatant was performed by ion exchange (IE) and reverse phase (RP)-HPLC (Prominence UFLC, Shimadzu). Proteins eluting from the column were quantified by light absorbance at 220, 280, and 415 nm with a diode array detector. The relative amount of free α-globin was calculated from the area of the peak for each condition at 415 nm and normalized based on the DMSO control. The percentage was calculated as follows: % α-globin=[α-chain/ρ-chain (β+γ+δ)×100].

[3] = system: Hbb^Th3/+ reticulocytes; test: Reticulocyte pulse-chase analysis of insoluble α-globin turnover with inhibitors; format: cell-based, mice; conditions: 6 hours chase, 10 μM MG132, 100 μM chloroquine or 0.2 μM bafilomycin A1
Procedure: Briefly, reticulocytes were pulse-labeled with ^35S-cysteine and ^35S-methionine for 30 minutes then chased with unlabeled amino acids±proteasome inhibitor (10 μM MG132) and/or lysosome inhibitor (100 μM chloroquine or 0.2 μM bafilomycin A1). Insoluble α-globin was isolated by TAU gel electrophoresis, analyzed by autoradiography, and quantified using AlphaView SA 3.4.0 (ProteinSimple).
To investigate how the depletion of ULK1 or ATG5 affects the turnover of insoluble α-globin in β-thalassemia, mutant reticulocytes were pulse-labeled with ^35S-labeled amino acids, chased for various times with unlabeled amino acids with or without various inhibitors, and the soluble and insoluble nascent radiolabeled α-globin in cell lysates was quantified.

[4] = system: Hbb^Th3/+ mice; conditions: systemic administration (Khandros 2012); cited from earlier work
[5] = system: electron-dense α-globin inclusions in reticulocytes; test: Transmission electron microscopy of electron-dense aggregates in reticulocytes of treated mice; format: in vivo; conditions: β-thalassemic mice treated with rapamycin vs vehicle-treated controls; P<0.0001
Procedure: Samples were fixed in 2.5% glutaraldehyde in 0.1M sodium cacodylate buffer, pH 7.4, and embedded in 2% low-gelling-temperature agarose. The samples were post-fixed in 2% osmium tetroxide in 0.1M cacodylate buffer with 0.3% potassium ferrocyanide for 1.5 hours, dehydrated through a graded series of ethanol/propylene oxide solutions, then infiltrated with and embedded in epoxy resin, which was polymerized at 70° C. overnight. Semi-thin (0.5 μm) sections were stained with toluidine blue for light microscope examination. Ultra-thin (80 nm) sections were cut and imaged using an FEI Tecnai 200 Kv FEG Transmission Electron Microscope with an ATM XR41 digital camera.
Areas of electron-dense α-globin inclusions in reticulocytes were quantified by automated image analysis of electron micrographs. TEM images were analyzed with the FIJI software program and the Trainable Weka Segmentation plugin to produce pixel-based segmentations in order to quantify differences in the numbers and areas of intracytoplasmic hemoglobin precipitates in thalassemic and non-thalassemic samples (Schindelin, et al. (2012) Nat. Meth. 9:676-682; Arganda-Carreras, et al. (2017) Bioinformatics 33:2424-2426).
(§1) Tissue samples were submitted for pathology analysis.
(§2) Insoluble α-globin in reticulocytes from rapamycin-treated Hbb^Th3/+ mice was decreased by approximately 50% (FIG. 2).

[6] = system: insoluble α-globin; test: Detection of insoluble α-globin precipitates (TAU gel) in erythroid cells of treated mice; format: in vivo; conditions: FIG. 2
Procedure: Briefly, 20 μL of washed RBCs (normalized based on the hematocrit percentage) were lysed and centrifuged at 16,000×g at 4° C. for 30 minutes. The pellets were washed extensively in ice-cold 0.05×PBS. Membrane lipids were extracted with 56 mM sodium borate, pH 8.0, containing 0.1% TWEEN-20, at 4° C. Precipitated globins were dissolved in 8M urea, 10% acetic acid, 10% β-mercaptoethanol, and 0.04% pyronin, fractionated by TRITON-acetic acid-urea (TAU) gel electrophoresis, and stained with COOMASSIE brilliant blue. Soluble hemoglobin fractions were analyzed and quantified as loading controls by using AlphaView SA 3.4.0 (ProteinSimple).
as §1, §2

[7] = system: β-thalassemic and control mice; test: Pathology grading of erythropoiesis (bone marrow, spleen, liver) in rapamycin-treated mice; format: in vivo; conditions: rapamycin 30 days; for Bone marrow erythropoiesis grade / Liver erythropoiesis grade / Spleen erythropoiesis grade: grade scale 0-5; for Final grade (sum of the grades of the three tissues): scale 0-15
Procedure: Bright-field images of hematoxylin and eosin-stained tissues were acquired with a Nikon Eclipse Ni microscope. Morphologic phenotyping of all cohorts was carried out in a blinded manner by a board-certified veterinary pathologist. A semi-quantitative grading method was used to highlight visual differences in the erythropoiesis in each cohort. The bone marrow, spleen, and liver were first analyzed separately using the following grading scale: grade 0: within normal limits; grade 1: minimal; grade 2: mild; grade 3: moderate; grade 4: marked; grade 5: severe. A total grade for erythropoiesis (final grade) was calculated based on the sum of the grades for each of the three tissues. […] No mouse received a grade consistent with a severe increase in erythropoiesis.
as §1

[8] = system: β-thalassemic and control mice; test: Hematologic analysis of mice treated with rapamycin for 30 days; format: in vivo
Procedure: Mice were analyzed at 1-6 months of age. Blood was collected by submandibular bleeding, anticoagulated with EDTA, and analyzed on a FORCYTE Veterinary Hematology Analyzer.
as §1

[9] = Hbb^+/+ Ulk1^+/+ mice, rapamycin 4 mg/kg i.p. daily 30 days, mean ± SD
[10] = Hbb^Th3/+ Ulk1^+/+ mice, rapamycin 4 mg/kg i.p. daily 30 days, mean ± SD
[11] = Hbb^Th3/+ Ulk1^−/− mice, rapamycin 4 mg/kg i.p. daily 30 days, mean ± SD
[12] = β-thalassemic mice, rapamycin 4 mg/kg i.p. daily 30 days vs vehicle, P<0.001

## CC(C)C[C@@H](C=O)NC(=O)[C@H](CC(C)C)NC(=O)[C@H](CC(C)C)NC(=O)OCc1ccccc1 [MG132] (Cbz-Leu-Leu-Leu-aldehyde)
[1]
  effect on cell survival: induced cell death
[2]; β-thalassemic erythroblasts, MG132 1 μM or 2.5 μM added day 13, HPLC two days later
  free α-globin levels: raised free α-globin levels
[3]
  sensitivity of clearance of labeled insoluble α-globin to the inhibitor: sensitive

## CO/C1=C\C(C)=C\[C@@H](C)[C@@H](O)[C@@H](C)C/C(C)=C/C=C/[C@H](OC)[C@@H]([C@@H](C)[C@@H](O)[C@H](C)[C@@]2(O)C[C@@H](O)[C@H](C)[C@@H](C(C)C)O2)OC1=O [bafilomycin A1]
[3]
  sensitivity of clearance of labeled insoluble α-globin to the inhibitor: sensitive

## CC(C)C[C@H](NC(=O)[C@H](Cc1ccccc1)NC(=O)c1cnccn1)B(O)O [bortezomib]
[4]
  induction of autophagy and heat-shock proteins: induced both autophagy and heat-shock proteins
  insoluble α-globin: no net increase in insoluble α-globin

## CO[C@H]1C[C@@H]2CC[C@@H](C)[C@@](O)(O2)C(=O)C(=O)N2CCCC[C@H]2C(=O)O[C@H]([C@H](C)C[C@@H]2CC[C@@H](O)[C@H](OC)C2)CC(=O)[C@H](C)/C=C(\C)[C@@H](O)[C@@H](OC)C(=O)[C@H](C)C[C@H](C)/C=C/C=C/C=C/1C [rapamycin]
[5]
  reduction in electron-dense aggregates in reticulocytes (TEM): approximately 60%
[6]; Hbb^Th3/+Ulk1^−/− mice
  effect on the accumulation of insoluble α-globin: no effect
[6]; rapamycin-treated Hbb^Th3/+ mice
  decrease of insoluble α-globin in reticulocytes: approximately 50%
[7]; Hbb^+/+ Ulk1^+/+ mice
  Bone marrow erythropoiesis grade: 0.00 ± 0.00^ns
  Liver erythropoiesis grade: 0.44 ± 0.53^ns
  Spleen erythropoiesis grade: 0.00 ± 0.00^ns
  Final grade (sum of the grades of the three tissues): 0.44 ± 0.53^ns
[7]; Hbb^Th3/+ Ulk1^+/+ mice
  Bone marrow erythropoiesis grade: 1.75 ± 1.67^ns
  Liver erythropoiesis grade: 0.87 ± 0.35^ns
  Spleen erythropoiesis grade: 2.37 ± 0.52
  Final grade (sum of the grades of the three tissues): 5.00 ± 1.85
[7]; Hbb^Th3/+ Ulk1^−/− mice
  Bone marrow erythropoiesis grade: 3.30 ± 0.48^ns
  Liver erythropoiesis grade: 1.10 ± 0.31
  Spleen erythropoiesis grade: 3.20 ± 0.79^ns
  Final grade (sum of the grades of the three tissues): 7.60 ± 1.07^ns
[1]
  effect on cell survival: no deleterious effect on cell survival
[2]; NTD β-thalassemic erythroblasts, P<0.001
  reduction of free α-globin: 85%
[2]; TD β-thalassemia erythroblasts, P<0.0001
  reduction of free α-globin: 40%
[8]; [9]
  Hb: 13.78 ± 1.99^ns g/dL
  Hct: 40.98 ± 5.75^ns %
  MCH: 14.53 ± 0.53^ns pg
  MCHC: 33.66 ± 0.76^ns g/dL
  MCV: 42.89 ± 1.61^ns fL
  RDW: 14.40 ± 0.91^ns %
  Reticulocytes: 2.90 ± 1.21^ns %
[8]; [10]
  Hb: 10.33 ± 1.07 g/dL
  Hct: 29.42 ± 3.59 %
  MCH: 11.56 ± 1.21 pg
  MCHC: 35.54 ± 1.01 g/dL
  MCV: 32.67 ± 3.02 fL
  RDW: 31.05 ± 5.23 %
  Reticulocytes: 13.06 ± 6.67 %
[8]; [11]
  Hct: 25.42 ± 4.59^ns %
  MCH: 15.08 ± 1.31^ns pg
  MCHC: 34.99 ± 2.14^ns g/dL
  MCV: 43.03 ± 1.62 fL
  RBC: 5.81 ± 0.99^ns ×10^6/μL
  RDW: 39.73 ± 0.66^ns %
  Reticulocytes: 34.35 ± 2.78^ns %
[8]; wild-type or Hbb^Th3/+Ulk1^−/− mice
  effect on RBC indices or erythropoiesis: no effect
[8]; [12]
  decrease in reticulocyte count: 44%
  increase in RBC count: 27%
[8]; β-thalassemic mice, rapamycin 4 mg/kg i.p. daily 30 days vs vehicle, P<0.05
  increase in Hb: 10%
